According to the NIST ThermoML archive (doi:10.1016/j.tca.2006.02.029):
± gives the expanded uncertainty stated by the source.

Test: excess molar enthalpy (molar enthalpy of mixing); xn = mol fraction of the nth substance listed
Settings: 1065 K, 101 kPa, Liquid, Drop calorimetry

[Fe] [iron] + [Sb]
Settings	excess molar enthalpy [kcal/mol]
x1 = 0.0023	0.0117 ± 0.000359
x1 = 0.0025	0.00933 ± 0.000335
x1 = 0.0049	0.0176 ± 0.000406
x1 = 0.0055	0.0233 ± 0.000478
x1 = 0.0075	0.0279 ± 0.000526
x1 = 0.008	0.0317 ± 0.00055
x1 = 0.0102	0.0359 ± 0.000598
x1 = 0.0114	0.0427 ± 0.000669
x1 = 0.0129	0.0455 ± 0.000693
x1 = 0.0135	0.0475 ± 0.000717
x1 = 0.0144	0.0535 ± 0.000765
x1 = 0.0148	0.0479 ± 0.000717
x1 = 0.0157	0.0538 ± 0.000765
x1 = 0.0187	0.0674 ± 0.000908
x1 = 0.0188	0.0624 ± 0.00086
x1 = 0.0232	0.079 ± 0.00103
x1 = 0.0271	0.0916 ± 0.00115
x1 = 0.029	0.0888 ± 0.00112
x1 = 0.0292	0.0913 ± 0.00115
x1 = 0.0316	0.105 ± 0.00129
x1 = 0.0359	0.118 ± 0.00141
x1 = 0.0407	0.131 ± 0.00155
x1 = 0.0442	0.131 ± 0.00155
x1 = 0.0445	0.128 ± 0.00153
x1 = 0.0455	0.145 ± 0.0017
x1 = 0.0591	0.165 ± 0.00189
x1 = 0.0609	0.168 ± 0.00191
x1 = 0.0762	0.201 ± 0.00225
x1 = 0.0765	0.204 ± 0.00227
x1 = 0.0942	0.229 ± 0.00263
x1 = 0.096	0.243 ± 0.00263
x1 = 0.1139	0.259 ± 0.00287
x1 = 0.1167	0.283 ± 0.00311
x1 = 0.1336	0.313 ± 0.00335
x1 = 0.1353	0.299 ± 0.00311
